According to ChEMBL document CHEMBL3785086, “Design and synthesis of natural product derivatives with selective and improved cytotoxicity based on a sesquiterpene scaffold” (Bioorg Med Chem Lett, 2016):

System: MCF7
Experiment: Cytotoxicity against human MCF7 cells assessed as cell proliferation after 24 hrs by CCK-8 assay
Type: functional, cell-based
Settings: MCF7, 24 h

| SMILES | IC50 |
| --- | --- |
| C/C(=C\c1cc(-c2ccc(C)cc2)co1)C(N)=O | 1.63 µM |
| C/C(=C\c1cc(-c2ccc([N+](=O)[O-])cc2)cs1)C(N)=O | 1.21 µM |
| C/C(=C\c1nc(-c2ccccc2)cs1)C(N)=O | 2.38 µM |
| C/C(=C\c1cc(-c2ccc(F)nc2)co1)C(N)=O | 14.1 µM |
| C/C(=C\c1cccc(-c2ccc(C)cc2)c1)C(N)=O | 6.71 µM |
| C/C(=C\c1cc(-c2cccnc2)co1)C(N)=O | 13.2 µM |
| COc1ccc(-c2csc(/C=C(\C)C(N)=O)c2)cc1 | > 50 µM |
| C/C(=C\c1nc(-c2ccc(C)cc2)cs1)C(N)=O | > 50 µM |
| C/C(=C\c1cc(-c2ccc(C)nc2)co1)C(N)=O | 10.2 µM |
| C/C(=C\c1cccc(-c2ccccc2)c1)C(N)=O | 6.54 µM |
| C/C(=C\c1cc(-c2ccc(C(F)(F)F)cc2)cs1)C(N)=O | 50 µM |
| C/C(=C\c1cc(-c2ccc(F)cc2)cs1)C(N)=O | 1.44 µM |
| C=Cc1ccc(-c2csc(/C=C(\C)C(N)=O)c2)cc1 | > 50 µM |
| C/C(=C\c1cc(-c2ccc(C#N)cc2)cs1)C(N)=O | 0.24 µM |

System: HeLa
Experiment: Cytotoxicity against human HeLa cells assessed as cell proliferation after 24 hrs by CCK-8 assay
Type: functional, cell-based
Settings: not given

| SMILES | IC50 |
| --- | --- |
| C/C(=C\c1cc(-c2ccc(C)cc2)co1)C(N)=O | 12 µM |
| C/C(=C\c1cc(-c2ccc([N+](=O)[O-])cc2)cs1)C(N)=O | 2.9 µM |
| C/C(=C\c1nc(-c2ccccc2)cs1)C(N)=O | 2.77 µM |
| C/C(=C\c1cc(-c2ccc(F)nc2)co1)C(N)=O | > 50 µM |
| C/C(=C\c1cccc(-c2ccc(C)cc2)c1)C(N)=O | 24.8 µM |
| C/C(=C\c1cc(-c2cccnc2)co1)C(N)=O | > 50 µM |
| COc1ccc(-c2csc(/C=C(\C)C(N)=O)c2)cc1 | > 50 µM |
| C/C(=C\c1nc(-c2ccc(C)cc2)cs1)C(N)=O | 25 µM |
| C/C(=C\c1cc(-c2ccc(C)nc2)co1)C(N)=O | > 50 µM |
| C/C(=C\c1cccc(-c2ccccc2)c1)C(N)=O | 15.7 µM |
| C/C(=C\c1cc(-c2ccc(C(F)(F)F)cc2)cs1)C(N)=O | > 50 µM |
| C/C(=C\c1cc(-c2ccc(F)cc2)cs1)C(N)=O | 20.8 µM |
| C=Cc1ccc(-c2csc(/C=C(\C)C(N)=O)c2)cc1 | > 50 µM |
| C/C(=C\c1cc(-c2ccc(C#N)cc2)cs1)C(N)=O | 0.25 µM |

System: not listed separately
Experiment: Cytotoxicity against human HO8910 cells assessed as cell proliferation after 24 hrs by CCK-8 assay
Type: functional, cell-based
Settings: HO-8910, 24 h

| SMILES | IC50 |
| --- | --- |
| C/C(=C\c1cc(-c2ccc(C)cc2)co1)C(N)=O | 24.2 µM |
| C/C(=C\c1cc(-c2ccc([N+](=O)[O-])cc2)cs1)C(N)=O | 2.38 µM |
| C/C(=C\c1nc(-c2ccccc2)cs1)C(N)=O | 3.78 µM |
| C/C(=C\c1cc(-c2ccc(F)nc2)co1)C(N)=O | 30 µM |
| C/C(=C\c1cccc(-c2ccc(C)cc2)c1)C(N)=O | 26.8 µM |
| C/C(=C\c1cc(-c2cccnc2)co1)C(N)=O | 8.64 µM |
| COc1ccc(-c2csc(/C=C(\C)C(N)=O)c2)cc1 | > 50 µM |
| C/C(=C\c1nc(-c2ccc(C)cc2)cs1)C(N)=O | > 50 µM |
| C/C(=C\c1cc(-c2ccc(C)nc2)co1)C(N)=O | > 50 µM |
| C/C(=C\c1cccc(-c2ccccc2)c1)C(N)=O | 12.6 µM |
| C/C(=C\c1cc(-c2ccc(C(F)(F)F)cc2)cs1)C(N)=O | > 50 µM |
| C/C(=C\c1cc(-c2ccc(F)cc2)cs1)C(N)=O | > 50 µM |
| C=Cc1ccc(-c2csc(/C=C(\C)C(N)=O)c2)cc1 | > 50 µM |
| C/C(=C\c1cc(-c2ccc(C#N)cc2)cs1)C(N)=O | 0.13 µM |

System: A549
Experiment: Cytotoxicity against human A549 cells assessed as cell proliferation after 24 hrs by CCK-8 assay
Type: functional, cell-based
Settings: A549, 24 h

| SMILES | IC50 |
| --- | --- |
| C/C(=C\c1cc(-c2ccc(C)cc2)co1)C(N)=O | > 50 µM |
| C/C(=C\c1cc(-c2ccc([N+](=O)[O-])cc2)cs1)C(N)=O | 3.5 µM |
| C/C(=C\c1nc(-c2ccccc2)cs1)C(N)=O | > 50 µM |
| C/C(=C\c1cc(-c2ccc(F)nc2)co1)C(N)=O | > 50 µM |
| C/C(=C\c1cccc(-c2ccc(C)cc2)c1)C(N)=O | 5.1 µM |
| C/C(=C\c1cc(-c2cccnc2)co1)C(N)=O | 6.62 µM |
| COc1ccc(-c2csc(/C=C(\C)C(N)=O)c2)cc1 | > 50 µM |
| C/C(=C\c1nc(-c2ccc(C)cc2)cs1)C(N)=O | > 50 µM |
| C/C(=C\c1cc(-c2ccc(C)nc2)co1)C(N)=O | > 50 µM |
| C/C(=C\c1cccc(-c2ccccc2)c1)C(N)=O | > 50 µM |
| C/C(=C\c1cc(-c2ccc(C(F)(F)F)cc2)cs1)C(N)=O | > 50 µM |
| C/C(=C\c1cc(-c2ccc(F)cc2)cs1)C(N)=O | > 50 µM |
| C=Cc1ccc(-c2csc(/C=C(\C)C(N)=O)c2)cc1 | > 50 µM |
| C/C(=C\c1cc(-c2ccc(C#N)cc2)cs1)C(N)=O | > 50 µM |

System: not listed separately
Experiment: Cytotoxicity against human T24 cells assessed as cell proliferation after 24 hrs by CCK-8 assay
Type: functional, cell-based
Settings: T-24, 24 h

| SMILES | IC50 |
| --- | --- |
| C/C(=C\c1cc(-c2ccc(C)cc2)co1)C(N)=O | > 50 µM |
| C/C(=C\c1cc(-c2ccc([N+](=O)[O-])cc2)cs1)C(N)=O | > 50 µM |
| C/C(=C\c1nc(-c2ccccc2)cs1)C(N)=O | > 50 µM |
| C/C(=C\c1cc(-c2ccc(F)nc2)co1)C(N)=O | > 50 µM |
| C/C(=C\c1cccc(-c2ccc(C)cc2)c1)C(N)=O | 7.65 µM |
| C/C(=C\c1cc(-c2cccnc2)co1)C(N)=O | > 50 µM |
| COc1ccc(-c2csc(/C=C(\C)C(N)=O)c2)cc1 | > 50 µM |
| C/C(=C\c1nc(-c2ccc(C)cc2)cs1)C(N)=O | > 50 µM |
| C/C(=C\c1cc(-c2ccc(C)nc2)co1)C(N)=O | > 50 µM |
| C/C(=C\c1cccc(-c2ccccc2)c1)C(N)=O | > 50 µM |
| C/C(=C\c1cc(-c2ccc(C(F)(F)F)cc2)cs1)C(N)=O | > 50 µM |
| C/C(=C\c1cc(-c2ccc(F)cc2)cs1)C(N)=O | > 50 µM |
| C=Cc1ccc(-c2csc(/C=C(\C)C(N)=O)c2)cc1 | > 50 µM |
| C/C(=C\c1cc(-c2ccc(C#N)cc2)cs1)C(N)=O | > 50 µM |

System: not listed separately
Experiment: Cytotoxicity against human BGC823 cells assessed as cell proliferation after 24 hrs by CCK-8 assay
Type: functional, cell-based
Settings: BGC-823, 24 h

| SMILES | IC50 |
| --- | --- |
| C/C(=C\c1cc(-c2ccc(C)cc2)co1)C(N)=O | > 50 µM |
| C/C(=C\c1cc(-c2ccc([N+](=O)[O-])cc2)cs1)C(N)=O | > 50 µM |
| C/C(=C\c1nc(-c2ccccc2)cs1)C(N)=O | > 50 µM |
| C/C(=C\c1cc(-c2ccc(F)nc2)co1)C(N)=O | > 50 µM |
| C/C(=C\c1cccc(-c2ccc(C)cc2)c1)C(N)=O | > 50 µM |
| C/C(=C\c1cc(-c2cccnc2)co1)C(N)=O | > 50 µM |
| COc1ccc(-c2csc(/C=C(\C)C(N)=O)c2)cc1 | > 50 µM |
| C/C(=C\c1nc(-c2ccc(C)cc2)cs1)C(N)=O | > 50 µM |
| C/C(=C\c1cc(-c2ccc(C)nc2)co1)C(N)=O | > 50 µM |
| C/C(=C\c1cccc(-c2ccccc2)c1)C(N)=O | > 50 µM |
| C/C(=C\c1cc(-c2ccc(C(F)(F)F)cc2)cs1)C(N)=O | > 50 µM |
| C/C(=C\c1cc(-c2ccc(F)cc2)cs1)C(N)=O | > 50 µM |
| C=Cc1ccc(-c2csc(/C=C(\C)C(N)=O)c2)cc1 | > 50 µM |
| C/C(=C\c1cc(-c2ccc(C#N)cc2)cs1)C(N)=O | > 50 µM |

System: not listed separately
Experiment: Cytotoxicity against mouse NIH/3T3 cells assessed as cell proliferation after 24 hrs by CCK-8 assay
Type: cell-based
Settings: NIH3T3, 24 h

| SMILES | IC50 |
| --- | --- |
| C/C(=C\c1cc(-c2ccc(C)cc2)co1)C(N)=O | > 50 µM |
| C/C(=C\c1cc(-c2ccc([N+](=O)[O-])cc2)cs1)C(N)=O | > 50 µM |
| C/C(=C\c1nc(-c2ccccc2)cs1)C(N)=O | > 50 µM |
| C/C(=C\c1cc(-c2ccc(F)nc2)co1)C(N)=O | > 50 µM |
| C/C(=C\c1cccc(-c2ccc(C)cc2)c1)C(N)=O | > 50 µM |
| C/C(=C\c1cc(-c2cccnc2)co1)C(N)=O | > 50 µM |
| COc1ccc(-c2csc(/C=C(\C)C(N)=O)c2)cc1 | > 50 µM |
| C/C(=C\c1nc(-c2ccc(C)cc2)cs1)C(N)=O | > 50 µM |
| C/C(=C\c1cc(-c2ccc(C)nc2)co1)C(N)=O | > 50 µM |
| C/C(=C\c1cccc(-c2ccccc2)c1)C(N)=O | > 50 µM |
| C/C(=C\c1cc(-c2ccc(C(F)(F)F)cc2)cs1)C(N)=O | > 50 µM |
| C/C(=C\c1cc(-c2ccc(F)cc2)cs1)C(N)=O | > 50 µM |
| C=Cc1ccc(-c2csc(/C=C(\C)C(N)=O)c2)cc1 | > 50 µM |
| C/C(=C\c1cc(-c2ccc(C#N)cc2)cs1)C(N)=O | > 50 µM |
